Type in all cases: cell-based, mouse
The test system of assay [1] is c-Fos. Put plainly: Quantitative real-time PCR, c-Fos mRNA in RAW264.7 cells. The procedure: (§1) METHOD EXAMPLE. Quantitative real-time PCR. Total RNA was extracted using an RNeasy Plus mini kit (Qiagen, Germantown, Md., USA). Reverse transcription was conducted with high capacity cDNA reverse transcription kits (Applied Biosystems, Carlsbad, Calif., USA), and quantitative real-time PCR was performed using ABI 7500 with Power SYBR green PCR master mix kits (Applied Biosystems). We evaluated mRNA levels of ATF4, Osteocalcin (OCN), NFATcl, c-Fos, tartrate-resistant acid phosphatase (TRAP), and osteoclast-associated receptor (OSCAR) with the PCR primers listed in Table 1. GAPDH was used for internal control. The relative mRNA abundance for the selected genes with respect to the level of GAPDH mRNA was expressed as a ratio of Streated/Scontrol, where Streated=mRNA level for the cells treated with chemical agents, and Scontrol=mRNA level for control cells.
(§2) METHOD EXAMPLE. Partial suppression of mRNA levels of NFATcl, c-Fos, TRAP, and OSCAR by salubrinal. […] On day 2, for instance, the RANKL-driven increase was 9.4±0.5 fold (NFATcl), 1.9±0.1 fold (c-fos), 165±4.2 fold (TRAP), and 467±22 fold (OSCAR). The reduction by 20 μM salubrinal was 46% (NFATcl), 32% (c-fos), 35% (TRAP), and 21% (OSCAR) (FIG. 5A).
(§3) METHOD EXAMPLE. Reduction of RANKL-induced NFATcl, c-Fos, TRAP, and OSCAR by guanabenz. […] The normalized level of “1” was defined as the level for the cells that were not treated with RANKL without administration of guanabenz.
Background: Quantitative PCR measures a nucleic acid by following its amplification.

In assay [2] the test system is NFATc1. Put plainly: Quantitative real-time PCR, NFATc1 mRNA in RAW264.7 cells. The procedure:
as §1, §2, §3

In assay [3] the test system is osteoclast-associated receptor (OSCAR). The assay can be described thus: Quantitative real-time PCR, OSCAR mRNA in RAW264.7 cells. The procedure:
as §1, §2, §3

In assay [4] the test system is NFATc1. The assay can be described thus: NFATc1 expression after RNA interference for eIF2α in RAW264.7 cells. As to conditions: for reduction of NFATc1: 20 μM. The protocol: (§4) METHOD EXAMPLE. Western Immunoblotting. Cells were lysed in a radioimmunoprecipitation assay (RIPA) buffer containing protease inhibitors (Santa Cruz Biotechnology, Santa Cruz, Calif., USA) and phosphatase inhibitors (Calbiochem, Billerica, Mass., USA). Isolated proteins were fractionated using 10-15% SDS gels and electro-transferred to Immobilon-P membranes (Millipore, Billerica, Mass., USA). The membrane was incubated for 1 h with primary antibodies followed by 45 min incubation with goat anti-rabbit or anti-mouse IgG conjugated with horseradish peroxidase (Cell Signaling, Danvers, Mass., USA). We used antibodies against ATF4, NFATcl (Santa Cruz), p-eIF2α (Thermo Scientific, Waltham, Mass., USA), eIF2α, caspase 3, cleaved caspase 3, p38 and p-p38 mitogen activated protein kinase (MAPK), extracellular signal-regulated kinase (ERK) and p-ERK, nuclear factor kappa B (NFκB) p65 and p-NFκB p65 (Cell Signaling), and β-actin (Sigma). Protein levels were assayed using a SuperSignal west femto maximum sensitivity substrate (Thermo Scientific), and signal intensities were quantified with a luminescent image analyzer (LAS-3000, Fuji Film, Tokyo, Japan).
METHOD EXAMPLE. Knockdown of ATF4 and eIF2α by siRNA. Cells were treated with siRNA specific to ATF4 and eIF2α (Life Technologies). Selected target sequences for knockdown of ATF4 and eIF2α were: ATF4, 5′-GCU GCU UAC AUU ACU CUA A-3′; and eIF2α, 5′-CGG UCA AAA UUC GAG CAG A-3′. As a nonspecific control, a negative siRNA (Silencer Select #1, Life Technologies) was used. Cells were transiently transfected with siRNA for ATF4, eIF2α or control in Opti-MEM I medium with Lipofectamine RNAiMAX (Life Technologies). Six hours later, the medium was replaced by regular culture medium. The efficiency of silencing was assessed with immunoblotting or quantitative PCR 48 h after transfection.
METHOD EXAMPLE. Reduction in salubrinal/guanabenz-driven suppression of NFATcl expression by RNA interference for eTF2α. To evaluate the effects of eIF2α on the expression level of NFATcl, RNA interference specific for eIF2α together with a non-specific control (NC) was used (FIG. 10). […] However, the expression of NFATcl was reduced only by 20% in the cells transfected with eIF2α siRNA.

The subject of assay [5] is tartrate-resistant acid phosphatase (TRAP). The assay can be described thus: Quantitative real-time PCR, TRAP mRNA in RAW264.7 cells. As to conditions: for expression of TRAP: absence of RANKL administration. The protocol:
as §1, §2, §3

The subject of assay [6] is ATF4. The assay can be described thus: Western immunoblotting, ATF4 in MC3T3 E1-14 cells. The protocol: as §4
METHOD EXAMPLE. ATF4-mediated elevation of osteocalcin mRNA in MC3T3 E1-14 cells. Salubrinal is an inhibitor of de-phosphorylation of eIF2α. […]
(In general: A western blot detects proteins with antibodies after separation by electrophoresis.)

[7] abbreviates: 20 μM salubrinal, day 2 after RANKL.
Where [8] appears, read: 0.1-1 μM salubrinal, with RANKL, except on day 4.
Setting [9] is: 0.1-1 μM salubrinal, with RANKL, day 2 and day 4.
Where [10] appears, read: cells transfected with the control siRNA.
Setting [11] is: 20 μM guanabenz, 2 days after RANKL.
[12] abbreviates: 5 and 10 μM guanabenz, 2 days after RANKL.

Each structure is given as a SMILES string.

From US20160279079A1, “COMPOSITIONS AND METHODS FOR TREATING BONE DISEASES” (INDIANA UNIVERSITY RESEARCH AND TECHNOLOGY CORPORATION, priority 2013, published 2016) come the findings set out here.

Consider `O=C(/C=C/c1ccccc1)NC(NC(=S)Nc1cccc2cccnc12)C(Cl)(Cl)Cl` (stereo not shown) [salubrinal], for which the “reduction of c-fos mRNA level” value in assay [1] (setting [7]) came out at 32%. Further, the “c-fos mRNA level” value in assay [1] (setting [8]) is “did not contribute to significant reduction”. For the same molecule, the “reduction of NFATc1 mRNA level” value in assay [2] (setting [7]) is on record as 46%. The “NFATc1 mRNA level” value in assay [2] (setting [8]) is recorded as “did not contribute to significant reduction”. In addition, the “reduction of OSCAR mRNA level” value in assay [3] (setting [7]) is 21%. Further, in assay [3] (setting [9]), the “OSCAR mRNA level” value is on record as “did not contribute to significant reduction”. The “reduction of NFATc1” value stood at 20% in assay [4] (cells transfected with eIF2α siRNA) and 56% in assay [4] (setting [10]). In assay [5] (setting [7]), the “reduction of TRAP mRNA level” value is 35%. Further, the “TRAP mRNA level” value in assay [5] (setting [9]) is given as “did not contribute to significant reduction”. Further, in assay [5], the “expression of TRAP” value is recorded as “did not significantly alter”. In addition, the ATF4 expression entry in assay [6] (5 μM salubrinal) is “increase in ATF4 expression”.
As to `N=C(N)N/N=C/c1c(Cl)cccc1Cl` [guanabenz], the “c-Fos mRNA level” value in assay [1] (setting [11]) is reported as “reduced”. For the same molecule, the “NFATc1 mRNA level” value in assay [2] (setting [11]) was “reduced”. The “OSCAR mRNA level” value is given as “reduced” in assay [3] (setting [11]) and “effective in reducing” in assay [3] (setting [12]). Further, the “suppressive effect on NFATc1 level” value in assay [4] (20 μM guanabenz, transfection of eIF2α siRNA) was “abolished the suppressive effect”. Also, the “reduction of NFATc1” value in assay [4] (setting [10]) turned out to be 43%. For the same molecule, the “TRAP mRNA level” value was “reduced” in assay [5] (setting [11]) and “effective in reducing” in assay [5] (setting [12]). Besides, in assay [5], the “expression of TRAP” value is given as “did not significantly alter”. In addition, the ATF4 result in assay [6] (guanabenz) is “increase in p-eIF2α and ATF4”.
